The text below walks through data of PubChem BioAssay AID179 (DTP/NCI, 2004).

For orientation: pEC50 means −log10 of the EC50, conventionally taken in molar units. By pIC50 is commonly meant the IC50 on a negative log10 scale, so that one unit is a factor of ten.

In the assay the test system is CEM cells HIV-1 protection, formazan growth assay. Put plainly: NCI AIDS Antiviral Assay. The settings on record: for pIC50: measured here: growth of uninfected CEM cells. The procedure, abridged: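 Protection of CEM cells against HIV-1 measured as cell growth via soluble formazan read-out, with five concentrations tested on both infected and uninfected cells; failure to protect may reflect toxicity.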

Structures are written as SMILES. pEC50, pIC50: −log10 of the molar value. Values joined by “and” are separate entries in the source; they are usually repeats but may differ in a detail not shown here. Equal entries are not always repeated. Active and inactive are the calls of the source.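 The calls were made as follows: active = compounds giving half or more protection of infected cells from virus-caused growth loss, again on retest; inactive = the rest.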 Where a SMILES comes first, the peptide text is derived from it. The star is where a group is joined. Cbz = O=C(OCc1ccccc1)*; Boc = CC(C)(C)OC(=O)*; OSu = O=C1CCC(=O)N1O*; Bn = c1ccc(C*)cc1 Some results are limits rather than exact numbers.

`Cn1c2c(c3ccccc31)C1C(=O)N(c3ccccc3)C(=O)C1CC2` (stereo unspecified): the pEC50 was under 4.24 and the pIC50 was under 4.24.

With `C#CC(O)c1ccc(OC)c(OC)c1` (stereo unspecified), the outcome was inactive.

Turning to `Brc1ccc(/C=C2\C=Cc3ccccc32)cc1`, the pEC50 was under 4.59 and the pIC50 was under 4.59.

Consider `CC1CN=C(N(C(=O)Nc2ccccc2)c2ccc(Cl)c(Cl)c2)S1` (stereo unspecified), for which the pEC50 is under 3.70 and the pIC50 is 3.86.

On to `CC1=CCC[C@@]2(C)C(CC[C@@H]2C(C)/C=C/C(C)C)c2ccc(cc2C(=O)O)C[C@@H](O)CC1` (stereo partly specified), for which the outcome was inactive.

In the case of `O=C1CC(c2c[nH]c3ccccc23)C(=O)N1` (stereo unspecified), the outcome was inactive.

Take `CC1CN=C(CCc2ccc(NC(=O)c3ccc(C(=O)Nc4ccc(CCC5=NCC(C)N5)cc4)cc3)cc2)N1` (stereo unspecified): the pEC50 was under 3.70 and the pIC50 is 4.34.

As for `CC1(C)CC(=O)C2=C(C1)NC(SSC1=C(C#N)C(c3ccccc3)C3=C(CC(C)(C)CC3=O)N1)=C(C#N)C2c1ccccc1` (stereo unspecified), the pEC50 is under 3.95 and the pIC50 is 4.81.

Take `CC1CCCN(CCSSCCN2CCCC(C)C2)C1` (stereo unspecified): the pEC50 was under 3.70 and the pIC50 is 4.15.

As to `COc1ccc2[nH]c3c(c2c1)CC(=S)N1CCCC(CC3=O)C1` (stereo unspecified), the pEC50 is under 3.70 and the pIC50 is 4.21.

Regarding `CC1(C)/C=C/CC2(C)Oc3ccccc3C[C@@H]2CCC2(C)Oc3ccccc3C[C@@H]2C1` (stereo partly specified), the pEC50 is under 4.92 and the pIC50 is under 4.92.

`CCOc1ccc(N=Nc2ccc(/C=C/c3ccc(N=Nc4ccc(OCC)cc4)cc3S(=O)(=O)O)c(S(=O)(=O)O)c2)cc1`: the pEC50 was 4.52; the pIC50 was < 3.70 and 3.71.

Take `COC(=O)/C=C\C(C#N)(C#N)N=Cc1ccc(C)s1`: the pEC50 is under 5.70 and the pIC50 was 6.24.

With `COc1ccc(/C=N/Nc2nnc3c(n2)[nH]c2ccc(Br)cc23)cc1`, the pEC50 was under 3.70 and the negative logarithm of the IC50 (pIC50) is under 3.70.

As for `CC(NC(=O)C(C)NC(=O)C(N)CCP(C)(=O)O)C(=O)O` (stereo unspecified), the outcome was inactive.

Take `Cn1c([C@H](C#N)C(=O)c2cc(O)ccc2[N+](=O)[O-])nc2ccccc21`: the pEC50 is under 3.70 and the pIC50 is under 3.70.

Turning to `CCN(CC)c1c(-c2c(OC(C)C)c(=O)c2=O)c(=O)n2ccsc2c1OC(C)=O`, the pEC50 is under 3.70 and the pIC50 was 3.85.

Take `O=C1CC2(CCN(Cc3ccccc3)CC2)C(=O)N1N1CCCCC1`: the pEC50 is under 3.70 and the pIC50 was under 3.70.

For the molecule `COc1cncn2nc(C)nc12`, the pEC50 is under 4.12 and the pIC50 was under 4.12.

Take `CCn1cnc2[nH]cc(C#N)c2c1=O`: the pEC50 was under 3.70 and the pIC50 is under 3.70.

In the case of `CC(=O)OC1CC2OC(Cc3ccccc32)O1` (stereo unspecified), the pEC50 is under 3.70 and the pIC50 was under 3.70.

Take `[N-]=[N+]=Nc1c(Br)c(=O)[nH]c(=O)n1COCCO`: the outcome was inactive.

For the molecule `CC1CC(=O)Nc2cc(Cl)ccc2N1C(=O)C1CC1` (stereo unspecified), the pEC50 is under 3.70 and the pIC50 was under 3.70.

In the case of `N#C/C(=C\c1ccc(Br)cc1)C(=O)c1ccccc1`, the pEC50 is under 4.02 and the pIC50 is 4.17.

As for `CC(=O)OCc1ccc(-c2nc(C#N)c(N)o2)o1`, the pEC50 is under 3.70 and the pIC50 was under 3.70.

Regarding `CN(C)CCCOc1ccc(/C=C2/CCC/C(=C/c3ccc(OCCCN(C)C)cc3)C2=O)cc1`, the pEC50 was under 4.82 and the pIC50 is 5.98.

Take `CCOC(=O)C1C=C1C(C)(C)O` (stereo unspecified): the pEC50 was under 3.82 and the pIC50 was 3.87.

For the molecule `O=C(O)c1ccccc1Sc1ccc(C=C2NC(=S)N(c3ccccc3)C2=O)s1`, the pEC50 was under 3.70 and the pIC50 was 4.01.

As to `CC1c2cc(c3c(c2O)CN([C@@H](C)C2CCCCC2)CO3)C(C)c2cc(c3c(c2O)CN([C@@H](C)C2CCCCC2)CO3)C(C)c2cc(c3c(c2O)CN([C@@H](C)C2CCCCC2)CO3)C(C)c2cc1c1c(c2O)CN([C@@H](C)C2CCCCC2)CO1` (stereo partly specified), the pEC50 is under 4.00 and the pIC50 was 5.76.

Consider `Cc1cc(C)nc(NS(=O)(=O)c2ccc(NC(=O)NC(F)(F)F)cc2)n1`, for which the pEC50 was under 3.70 and the pIC50 is under 3.70.

As to `O=C1OCCN1N1CCOC1=O`, the pEC50 was under 3.70 and the pIC50 is under 3.70.

Take `O=C1CSC(=Nc2ccccc2)N1c1ncccn1`: the pEC50 is under 4.32 and the pIC50 is under 4.32.

Take `COC(=O)Cc1cc(=O)[nH]c2c1C(=O)CCC2`: the result was inactive.

As for `CCCCCCCCCCCCCCCCCC(=O)OC(COC(=O)COCCOCCOCCOCCOCCOC)COP(=O)([O-])OCC[N+](C)(C)C` (stereo unspecified), the result was inactive.

Consider `CCOP(=O)(OCC)C(Nc1cccc(F)c1)c1ccccc1` (stereo unspecified), for which the pEC50 is under 3.70 and the pIC50 was 3.91.

In the case of `NNC(=S)N/N=C(\C(=O)Nc1cccc(O)c1)C1C(=O)NC(=S)NC1=O`, the pEC50 is under 3.20 and the pIC50 was 3.35.

On to `CNN1C(=O)c2c(N)c(C#N)c(-c3ccccc3)c(-c3ccccc3)c2C1=O`, for which the pEC50 was 4.79 and the pIC50 is 3.76.

`O=C(C1OC1c1ccc(F)cc1)C12CC3CC(CC(C3)C1)C2` (stereo unspecified): the pEC50 was under 3.70 and the pIC50 was 4.92.

As to `COc1ccc(C2=Nc3ccccc3N=C(SC)C2)cc1`, the pEC50 was 5.62 and the pIC50 was 4.75.

For `N#CNC(=NCc1ccccc1)NCc1ccccc1`, the pEC50 was 3.70 and the negative logarithm of the IC50 (pIC50) is 3.47.

In the case of `O=C(O)CCC1c2[nH]c3ccccc3c2CCN1Cc1ccccc1` (stereo unspecified), the result was inactive.

For the molecule `N#CCCC1C(C#N)C2(Cl)CC1(Cl)C(Cl)=C2Cl` (stereo unspecified), the pEC50 is under 3.70 and the pIC50 was 4.63.

For the molecule `CN(C)CCC(O)(Cc1ccccc1)c1ccco1` (stereo unspecified), the pEC50 is under 3.70 and the pIC50 was 4.46.

Regarding `N#C/C(=C\NC(=S)NCc1ccccc1)c1nc2ccccc2s1`, the pEC50 was under 3.70 and the pIC50 was 4.32.

In the case of `OCC1OC(n2cnc3cccnc32)CC1O` (stereo unspecified), the pEC50 was under 3.70 and the negative-log IC50 (pIC50) is under 3.70.

In the case of `COc1cc(/C=C(\OC(C)=O)c2ccc3c(c2)OCO3)cc(OC)c1OC`, the pEC50 is under 3.90 and the pIC50 is 4.28.

Turning to `[N-]=[N+]=Nc1ccc2c(c1)Sc1ccccc1N2CCCCN1CCN(Cc2ccc(C(=O)c3ccccc3)cc2)CC1`, the pEC50 is under 4.00 and the pIC50 is 5.22.

Regarding `C=C1C(=O)OC2CC(C)C3C(OC(C)=O)CC(OC(C)=O)C3(C)CC12` (stereo unspecified), the pEC50 was under 4.01 and the pIC50 was 5.17.

For `Cc1cc2c(=O)cc(-c3ccncc3)oc2c(C(=O)O)c1C`, the pEC50 was under 3.07 and the pIC50 is under 3.07.

With `CSc1c2c(C)n[nH]c2nn1-c1ccccc1`, the pEC50 was under 3.70 and the pIC50 was 4.91.

Take `c1ccc2c(c1)Nc1nc3ccccc3nc1N2`: the pEC50 is under 4.00 and the negative-log IC50 (pIC50) is under 4.00.

On to `CC1OC(OC23C(=O)C[C@](C)(O)CC2(O)C=CC2C3=c3oc(-c4ccc(O)cc4)c4c3=C(C(=O)C(C3CC(OC5CCC(OC6CC(O)C(O)C(C)O6)C(C)O5)C(O)C(C)O3)=C4)C2O)CCC1O` (stereo partly specified), for which the pEC50 was under 4.72 and the pIC50 is under 4.72.

As to `CC1=C2c3c(C)ccc4ccc(C)c(c34)C2(O)C(C)C1=O` (stereo unspecified), the pEC50 was under 3.70 and the pIC50 was under 3.70.

On to `COC1CC(OC2C(C)OC(OC3C(C)OC(OC4C(C)OC(O[C@H]5CC[C@@]6(C)C(=CC[C@]7(O)[C@@H]6C[C@@H](OC(=O)/C=C/c6ccccc6)[C@@]6(C)[C@]7(O)CC[C@@]6(O)C(C)=O)C5)CC4OC)CC3OC)CC2OC)OC(C)C1O` (stereo partly specified), for which the pEC50 is under 3.70 and the pIC50 is 4.66.

As to `NC(=O)C(=Cn1c(=S)[nH]c2ccc([N+](=O)[O-])cc21)C(N)=O`, the pEC50 is under 3.70 and the pIC50 is under 3.70.

For the molecule `O=C(NC1C2CC3CC(C2)CC1C3)c1cc(/C=C/c2ccccc2)[nH]c(=S)n1` (stereo unspecified), the pEC50 was under 4.46 and the pIC50 is under 4.46.

For `CC[N+]1(C)CSC(=S)N(C)C1` (stereo unspecified), the pEC50 was under 3.70 and the pIC50 was 4.12.

`N.N.N.N.O=[N+]([O-])[O-].[Co+3].[N-]=[N+]=[N-].[N-]=[N+]=[N-]`: the outcome was inactive.

For `CC(C)(C)OC(=O)NC(Cc1ccc(OCc2ccccc2)cc1)C(=O)NC(CCCCNC(=O)OCc1ccccc1)C(=O)NC(CCCCNC(=O)OCc1ccccc1)C(=O)ON1C(=O)CCC1=O` (stereo unspecified) (Boc-Tyr(Bn)-Lys(Cbz)-Lys(Cbz)-OSu; configuration not given here), the pEC50 was under 4.00 and the pIC50 is 4.33.

For the molecule `CCOP1(=O)C=C(Sc2ccc([N+](=O)[O-])cc2[N+](=O)[O-])C(C)(C)O1` (stereo unspecified), the pEC50 was under 3.70 and the pIC50 is 3.96.

Consider `N#C/C(=C\c1cccc(Cl)c1)C(=O)c1ccccc1`, for which the pEC50 is under 3.95 and the pIC50 was 4.26.

For `CCN(CC)C(=S)Nc1ccc(-c2cc3ccc(O)cc3oc2=O)cc1`, the pEC50 is under 3.70 and the pIC50 is 4.85.

Regarding `COc1ccc(CN2CCCN(/N=C/c3c4c(O)c5c(O)c(C)c6c(c5c3O)C(=O)C(C)(O/C=C/C(OC)C(C)C(OC(C)=O)C(C)C(O)C(C)C(O)C(C)/C=C/C=C(C)C(=O)N4)O6)CC2)cc1` (stereo unspecified), the pEC50 is under 3.70 and the pIC50 was 4.92.

With `CC(=O)OC1CC2C(C)(C)C(=O)C=C[C@]2(C)C2CCC3(C)C(=CC(=O)C3c3ccoc3)[C@]12C` (stereo partly specified), the pEC50 is under 4.65, the outcome was inactive and the pIC50 is 4.85.

As to `CCOC(=O)c1c(NS(=O)(=O)c2ccc(C)cc2)sc(C)c1C`, the pEC50 is under 3.70 and the pIC50 was 4.47.

Turning to `Cc1ccc(S(=O)(=O)/C(C#N)=C/NC(=S)Nc2ccc(C)cc2C)cc1`, the outcome was inactive.

With `COC(=O)N/N=c1\cc(C(=O)Nc2ccc(C)c(C)c2)oc2cc(O)ccc12`, the pEC50 was under 3.18 and the pIC50 was 3.24.

As to `CC[C@@H]1C2CC3C4N(C)c5ccccc5[C@]45C[C@@H](C2C5O)N3C1O` (stereo partly specified), the result was inactive.
